Source: the NIST ThermoML archive (doi:10.1016/j.jct.2012.09.016)

Assays:
[1] = molar heat capacity at constant pressure; conditions: Liquid, Small sample (50 mg) DSC
[2] = Liquid, Vibrating tube method

CCCCCCN [1-hexanamine]
Conditions	mass density, [2] [kg/m3]	molar heat capacity at constant pressure, [1] [J/K/mol]
293.15 K, 100 kPa	765	–
293.15 K, 10000 kPa	771.2	–
293.15 K, 20000 kPa	777.4	–
293.15 K, 30000 kPa	783.2	–
293.15 K, 40000 kPa	788.6	–
293.15 K, 50000 kPa	793.7	–
293.15 K, 60000 kPa	798.6	–
293.15 K, 70000 kPa	803.1	–
293.15 K, 80000 kPa	807.5	–
293.15 K, 90000 kPa	811.8	–
293.15 K, 100000 kPa	815.8	–
293.15 K, 110000 kPa	819.6	–
293.15 K, 120000 kPa	823.3	–
293.15 K, 130000 kPa	826.9	–
293.15 K, 140000 kPa	830.3	–
313.15 K, 100 kPa	–	253.5
313.15 K, 20000 kPa	–	251
313.15 K, 40000 kPa	–	250.1
313.15 K, 60000 kPa	–	248.9
323.15 K, 100 kPa	–	253.7
323.15 K, 20000 kPa	–	251.5
323.15 K, 40000 kPa	–	250.5
323.15 K, 60000 kPa	–	249.3
333.15 K, 100 kPa	–	254.4
333.15 K, 20000 kPa	–	252.4
333.15 K, 40000 kPa	–	251.2
333.15 K, 60000 kPa	–	250.1
343.15 K, 100 kPa	–	255.7
343.15 K, 20000 kPa	–	253.6
343.15 K, 40000 kPa	–	252.3
343.15 K, 60000 kPa	–	251.3
353.15 K, 100 kPa	712.4	257.5
353.15 K, 10000 kPa	722.4	–
353.15 K, 20000 kPa	731.1	255.2
353.15 K, 30000 kPa	739.1	–
353.15 K, 40000 kPa	746.2	253.8
353.15 K, 50000 kPa	752.8	–
353.15 K, 60000 kPa	758.9	252.8
353.15 K, 70000 kPa	764.7	–
353.15 K, 80000 kPa	770.1	–
353.15 K, 90000 kPa	775.2	–
353.15 K, 100000 kPa	780.1	–
353.15 K, 110000 kPa	784.7	–
353.15 K, 120000 kPa	789.2	–
353.15 K, 130000 kPa	793.4	–
353.15 K, 140000 kPa	797.5	–
363.15 K, 100 kPa	703.9	259.8
363.15 K, 10000 kPa	714.4	–
363.15 K, 20000 kPa	723.6	257.2
363.15 K, 30000 kPa	731.9	–
363.15 K, 40000 kPa	739.3	255.6
363.15 K, 50000 kPa	746.2	–
363.15 K, 60000 kPa	752.6	254.7
363.15 K, 70000 kPa	758.5	–
363.15 K, 80000 kPa	764.1	–
363.15 K, 90000 kPa	769.4	–
363.15 K, 100000 kPa	774.4	–
363.15 K, 110000 kPa	779.1	–
363.15 K, 120000 kPa	783.6	–
363.15 K, 130000 kPa	787.9	–
363.15 K, 140000 kPa	792.1	–
373.15 K, 100 kPa	694.8	262.6
373.15 K, 10000 kPa	706	–
373.15 K, 20000 kPa	716	259.6
373.15 K, 30000 kPa	724.5	–
373.15 K, 40000 kPa	732.4	257.8
373.15 K, 50000 kPa	739.5	–
373.15 K, 60000 kPa	746.1	256.9
373.15 K, 70000 kPa	752.2	–
373.15 K, 80000 kPa	758.1	–
373.15 K, 90000 kPa	763.5	–
373.15 K, 100000 kPa	768.7	–
373.15 K, 110000 kPa	773.5	–
373.15 K, 120000 kPa	778.2	–
373.15 K, 130000 kPa	782.6	–
373.15 K, 140000 kPa	786.9	–
383.15 K, 100 kPa	686.1	–
383.15 K, 10000 kPa	698.2	–
383.15 K, 20000 kPa	708.6	262.3
383.15 K, 30000 kPa	717.6	–
383.15 K, 40000 kPa	725.8	260.3
383.15 K, 50000 kPa	733.3	–
383.15 K, 60000 kPa	740.2	259.5
383.15 K, 70000 kPa	746.5	–
383.15 K, 80000 kPa	752.5	–
383.15 K, 90000 kPa	758.1	–
383.15 K, 100000 kPa	763.4	–
383.15 K, 110000 kPa	768.3	–
383.15 K, 120000 kPa	773.2	–
383.15 K, 130000 kPa	777.7	–
383.15 K, 140000 kPa	782	–
393.15 K, 100 kPa	676.2	–
393.15 K, 10000 kPa	689.2	–
393.15 K, 20000 kPa	700.3	265.3
393.15 K, 30000 kPa	709.8	–
393.15 K, 40000 kPa	718.4	263.1
393.15 K, 50000 kPa	726.6	–
393.15 K, 60000 kPa	733.7	262.4
393.15 K, 70000 kPa	740.3	–
393.15 K, 80000 kPa	746.5	–
393.15 K, 90000 kPa	752.2	–
393.15 K, 100000 kPa	757.7	–
393.15 K, 110000 kPa	762.9	–
393.15 K, 120000 kPa	767.8	–
393.15 K, 130000 kPa	772.5	–
393.15 K, 140000 kPa	776.9	–
403.15 K, 100 kPa	666.9	–
403.15 K, 10000 kPa	680.9	–
403.15 K, 20000 kPa	692.5	268.8
403.15 K, 30000 kPa	702.8	–
403.15 K, 40000 kPa	711.7	266.4
403.15 K, 50000 kPa	719.9	–
403.15 K, 60000 kPa	727.2	265.7
403.15 K, 70000 kPa	734.1	–
403.15 K, 80000 kPa	740.4	–
403.15 K, 90000 kPa	746.5	–
403.15 K, 100000 kPa	752.1	–
403.15 K, 110000 kPa	757.4	–
403.15 K, 120000 kPa	762.5	–
403.15 K, 130000 kPa	767.2	–
403.15 K, 140000 kPa	771.8	–

CCCCCN [1-pentanamine]
Conditions	mass density, [2] [kg/m3]	molar heat capacity at constant pressure, [1] [J/K/mol]
293.15 K, 100 kPa	754	–
293.15 K, 10000 kPa	760.8	–
293.15 K, 20000 kPa	767.2	–
293.15 K, 30000 kPa	773.3	–
293.15 K, 40000 kPa	779	–
293.15 K, 50000 kPa	784.3	–
293.15 K, 60000 kPa	789.3	–
293.15 K, 70000 kPa	794	–
293.15 K, 80000 kPa	798.5	–
293.15 K, 90000 kPa	802.9	–
293.15 K, 100000 kPa	806.9	–
293.15 K, 110000 kPa	810.9	–
293.15 K, 120000 kPa	814.6	–
293.15 K, 130000 kPa	818.2	–
293.15 K, 140000 kPa	821.8	–
313.15 K, 100 kPa	–	221.7
313.15 K, 20000 kPa	–	219.7
313.15 K, 40000 kPa	–	218.3
313.15 K, 60000 kPa	–	217.9
323.15 K, 100 kPa	–	222.7
323.15 K, 20000 kPa	–	220.1
323.15 K, 40000 kPa	–	218.7
323.15 K, 60000 kPa	–	218.3
333.15 K, 100 kPa	–	223.9
333.15 K, 20000 kPa	–	220.8
333.15 K, 40000 kPa	–	219.4
333.15 K, 60000 kPa	–	218.9
343.15 K, 100 kPa	–	225.3
343.15 K, 20000 kPa	–	221.8
343.15 K, 40000 kPa	–	220.5
343.15 K, 60000 kPa	–	219.8
353.15 K, 100 kPa	698.5	226.9
353.15 K, 10000 kPa	709.4	–
353.15 K, 20000 kPa	718.5	223.3
353.15 K, 30000 kPa	726.8	–
353.15 K, 40000 kPa	734.3	221.8
353.15 K, 50000 kPa	741.2	–
353.15 K, 60000 kPa	747.6	221.1
353.15 K, 70000 kPa	753.6	–
353.15 K, 80000 kPa	759.3	–
353.15 K, 90000 kPa	764.7	–
353.15 K, 100000 kPa	769.8	–
353.15 K, 110000 kPa	774.5	–
353.15 K, 120000 kPa	779	–
353.15 K, 130000 kPa	783.5	–
353.15 K, 140000 kPa	787.7	–
363.15 K, 100 kPa	688.6	–
363.15 K, 10000 kPa	700.1	–
363.15 K, 20000 kPa	710	225.1
363.15 K, 30000 kPa	718.7	–
363.15 K, 40000 kPa	726.6	223.5
363.15 K, 50000 kPa	733.9	–
363.15 K, 60000 kPa	740.6	222.6
363.15 K, 70000 kPa	746.9	–
363.15 K, 80000 kPa	752.8	–
363.15 K, 90000 kPa	758.5	–
363.15 K, 100000 kPa	763.7	–
363.15 K, 110000 kPa	768.7	–
363.15 K, 120000 kPa	773.4	–
363.15 K, 130000 kPa	777.9	–
363.15 K, 140000 kPa	782.1	–
373.15 K, 100 kPa	679	–
373.15 K, 10000 kPa	691.5	–
373.15 K, 20000 kPa	702	227.4
373.15 K, 30000 kPa	711.3	–
373.15 K, 40000 kPa	719.6	225.5
373.15 K, 50000 kPa	727.1	–
373.15 K, 60000 kPa	734.1	224.5
373.15 K, 70000 kPa	740.5	–
373.15 K, 80000 kPa	746.7	–
373.15 K, 90000 kPa	752.3	–
373.15 K, 100000 kPa	757.6	–
373.15 K, 110000 kPa	762.7	–
373.15 K, 120000 kPa	767.6	–
373.15 K, 130000 kPa	772.2	–
373.15 K, 140000 kPa	776.6	–
383.15 K, 10000 kPa	682.6	–
383.15 K, 20000 kPa	693.8	230
383.15 K, 30000 kPa	703.7	–
383.15 K, 40000 kPa	712.3	227.8
383.15 K, 50000 kPa	720.3	–
383.15 K, 60000 kPa	727.5	226.6
383.15 K, 70000 kPa	734.3	–
383.15 K, 80000 kPa	740.6	–
383.15 K, 90000 kPa	746.5	–
383.15 K, 100000 kPa	752	–
383.15 K, 110000 kPa	757.2	–
383.15 K, 120000 kPa	762.2	–
383.15 K, 130000 kPa	766.8	–
383.15 K, 140000 kPa	771.4	–
393.15 K, 10000 kPa	673.1	–
393.15 K, 20000 kPa	685.2	232.9
393.15 K, 30000 kPa	695.5	–
393.15 K, 40000 kPa	704.7	230.4
393.15 K, 50000 kPa	713.2	–
393.15 K, 60000 kPa	720.8	229
393.15 K, 70000 kPa	727.9	–
393.15 K, 80000 kPa	734.4	–
393.15 K, 90000 kPa	740.3	–
393.15 K, 100000 kPa	746	–
393.15 K, 110000 kPa	751.4	–
393.15 K, 120000 kPa	756.5	–
393.15 K, 130000 kPa	761.4	–
393.15 K, 140000 kPa	766	–
403.15 K, 10000 kPa	664.1	–
403.15 K, 20000 kPa	677	236.3
403.15 K, 30000 kPa	687.8	–
403.15 K, 40000 kPa	697.3	233.3
403.15 K, 50000 kPa	705.9	–
403.15 K, 60000 kPa	713.9	231.8
403.15 K, 70000 kPa	721	–
403.15 K, 80000 kPa	727.8	–
403.15 K, 90000 kPa	734	–
403.15 K, 100000 kPa	739.9	–
403.15 K, 110000 kPa	745.4	–
403.15 K, 120000 kPa	750.7	–
403.15 K, 130000 kPa	755.7	–
403.15 K, 140000 kPa	760.5	–
